# Source: ChEMBL document CHEMBL3228010, “Potential antitumor agents. 29. Quantitative structure-activity relationships for the antileukemic bisquaternary ammonium heterocycles” (J Med Chem, 1979)
# Columns and labels:
# [1] = Lipophilic-hydrophilic balance, Rm of the compound by partition chromatography; format: physicochemical
# [2] = tested on: L1210; test: Antitumor activity against mouse L1210 cells […] in ip dosed C3H X DBA2 F1 hybrid mouse on day 0 and dosed at LD10 level once daily on days 1 to 5 assessed as increase in life span relative to control; format: functional
# [3] = tested on: L1210; test: Antitumor activity against mouse L1210 cells […] in ip dosed C3H X DBA2 F1 hybrid mouse on day 0 and dosed once daily on days 1 to 5 assessed as increase in life span relative to control; format: functional
# [4] = tested on: Mus musculus; test: Toxicity in ip dosed C3H X DBA2 F1 hybrid mouse […] with mouse L1210 cells on day 0 and dosed once daily on days 1 to 5 measured after 50 days; format: organism-based; settings: in vivo, 1200 h
Compound,Rm [1],log(ILSmax) [2],D40 [3] [mg/kg],LD10 [4] [mg/kg]
CC[n+]1cccc(C(=O)Nc2ccc(NC(=O)c3ccc(C(=O)Nc4ccc5c(ccc[n+]5CC)c4)cc3)cc2)c1.Cc1ccc(S(=O)(=O)[O-])cc1.Cc1ccc(S(=O)(=O)[O-])cc1,-0.12,1.89,3.1,6
CCC[n+]1ccc(Nc2ccc(NC(=O)c3ccc(C(=O)Nc4ccc(Nc5cc[n+](CCC)cc5)cc4)cc3)cc2)cc1.Cc1ccc(S(=O)(=O)[O-])cc1.Cc1ccc(S(=O)(=O)[O-])cc1,0.81,1.99,0.6,4.1
CC[n+]1cc(-c2ccc(NC(=O)c3ccc(Nc4cc[n+](CC)c5ccccc45)cc3)cc2)c(N)nc1N.[I-].[I-],0.45,2.11,3.3,32
CC[n+]1ccc(-c2ccc(NC(=O)c3ccc(Nc4cc[n+](CC)c5ccccc45)cc3)cc2)cc1.Cc1ccc(S(=O)(=O)[O-])cc1.Cc1ccc(S(=O)(=O)[O-])cc1,0.55,1.98,2.7,10
CC[n+]1cccc(NC(=O)c2ccc(NC(=O)c3ccc(C(=O)Nc4ccc(C(=O)Nc5ccc[n+](CC)c5)cc4)c(C)c3)cc2)c1.Cc1ccc(S(=O)(=O)[O-])cc1.Cc1ccc(S(=O)(=O)[O-])cc1,0.38,1.85,9.6,26
CCCC[n+]1cccc2cc(NC(=O)/C=C/c3ccc(C(=O)Nc4ccc5c(ccc[n+]5CCCC)c4)cc3)ccc21.Cc1ccc(S(=O)(=O)[O-])cc1.Cc1ccc(S(=O)(=O)[O-])cc1,0.9,1.4,25,25
CCC[n+]1cccc(NC(=O)c2ccc(NC(=O)c3ccc(C(=O)Nc4ccc(C(=O)Nc5ccc[n+](CCC)c5)c(N)c4)cc3)cc2N)c1.Cc1ccc(S(=O)(=O)[O-])cc1.Cc1ccc(S(=O)(=O)[O-])cc1,-0.38,2.02,5,30
CCC[n+]1cccc2cc(NC(=O)c3ccc(C(=O)Nc4ccc5c(ccc[n+]5CCC)c4)c(N)c3)ccc21.Cc1ccc(S(=O)(=O)[O-])cc1.Cc1ccc(S(=O)(=O)[O-])cc1,0.25,1.92,3.9,10
CCC[n+]1cccc2cc(NC(=O)c3ccc(-c4ccc(-c5ccc(-c6ccc(C(=O)Nc7ccc8c(ccc[n+]8CCC)c7)cc6)cc5)cc4)cc3)ccc21.Cc1ccc(S(=O)(=O)[O-])cc1.Cc1ccc(S(=O)(=O)[O-])cc1,0.49,2.01,17,45
CCC[n+]1cc(-c2ccc(NC(=O)c3ccc(Nc4cc[n+](CCC)c5ccc(N)cc45)cc3N)cc2)c(N)nc1N.Cc1ccc(S(=O)(=O)[O-])cc1.Cc1ccc(S(=O)(=O)[O-])cc1,0.56,2.03,13.7,50
CC[n+]1ccc(Nc2ccc(NC(=O)c3ccc(Nc4cc[n+](CC)c5ccccc45)cc3)cc2N)cc1.[I-].[I-],0.56,1.69,5.1,10
CCCC[n+]1cccc2cc(NC(=O)c3ccc(NC(=O)c4ccc(C(=O)Nc5ccc6c(ccc[n+]6CCCC)c5)cc4)cc3)ccc21.Cc1ccc(S(=O)(=O)[O-])cc1.Cc1ccc(S(=O)(=O)[O-])cc1,0.26,1.91,41,100
C[n+]1cccc(NC(=O)c2ccc(NC(=O)c3ccc(C(=O)Nc4ccc5c(ccc[n+]5C)c4)cc3)cc2)c1.Cc1ccc(S(=O)(=O)[O-])cc1.Cc1ccc(S(=O)(=O)[O-])cc1,-0.25,2.03,12,27
CCC[n+]1cccc(-c2ccc(NC(=O)c3ccc(C(=O)Nc4ccc(-c5ccc(-c6ccc(-c7ccc[n+](CCC)c7)cc6)cc5)cc4)cc3)cc2)c1.Cc1ccc(S(=O)(=O)[O-])cc1.Cc1ccc(S(=O)(=O)[O-])cc1,-0.25,2.16,4,59
CC[n+]1ccc(Nc2ccc(NC(=O)c3ccc(Nc4cc[n+](CC)c5ccc(N)cc45)cc3N)cc2)cc1.[I-].[I-],0.37,2.33,1.4,17
CCCC[n+]1cccc2cc(NC(=O)c3ccc(C(=O)Nc4ccc5c(ccc[n+]5CCCC)c4)c(N)c3)ccc21.Cc1ccc(S(=O)(=O)[O-])cc1.Cc1ccc(S(=O)(=O)[O-])cc1,0.6,1.72,9,18
CC[n+]1cccc2cc(NC(=O)c3ccc(C(=O)Nc4ccc5c(ccc[n+]5CC)c4)nc3)ccc21.Cc1ccc(S(=O)(=O)[O-])cc1.Cc1ccc(S(=O)(=O)[O-])cc1,-0.15,1.42,6,6

Compound,Rm [1],log(ILSmax) [2],D40 [3] [mg/kg],LD10 [4] [mg/kg]
CCC[n+]1ccc(Nc2ccc(NC(=O)c3ccc(Nc4cc[n+](CCC)c5ccc(N)cc45)cc3N)cc2)cc1.[I-].[I-],0.52,2.03,5.9,20
CCC[n+]1cccc2cc(NC(=O)/C=C/c3ccc(C(=O)Nc4ccc5c(ccc[n+]5CCC)c4)cc3)ccc21.Cc1ccc(S(=O)(=O)[O-])cc1.Cc1ccc(S(=O)(=O)[O-])cc1,0.5,2,4.3,20
CC[n+]1cccc(NC(=O)c2ccc(NC(=O)c3ccc(C(=O)Nc4ccc(C(=O)Nc5ccc[n+](CC)c5)c(N)c4)c(N)c3)cc2N)c1.Cc1ccc(S(=O)(=O)[O-])cc1.Cc1ccc(S(=O)(=O)[O-])cc1,-0.9,2.29,2.6,14
CC[n+]1ccc(Nc2ccc(C(=O)Nc3ccc(Nc4cc[n+](CC)c5ccccc45)cc3)cc2)cc1.[Br-].[Br-],0.45,2.16,0.6,10
CC[n+]1ccc(Nc2ccc(NC(=O)c3ccc(C(=O)Nc4ccc(Nc5cc[n+](CC)c(N)n5)cc4)cc3)cc2)nc1N.Cc1ccc(S(=O)(=O)[O-])cc1.Cc1ccc(S(=O)(=O)[O-])cc1,-0.3,2.06,10,112
CC[n+]1ccc(Nc2ccc(NC(=O)c3ccc(Nc4cc[n+](CC)c5ccccc45)cc3N)cc2)cc1.[I-].[I-],0.65,1.95,11.9,53
CCC[n+]1cccc(NC(=O)c2ccc(NC(=O)c3ccc(C(=O)Nc4ccc(C(=O)Nc5ccc[n+](CCC)c5)cc4)c(OC)c3)cc2)c1.Cc1ccc(S(=O)(=O)[O-])cc1.Cc1ccc(S(=O)(=O)[O-])cc1,0.78,1.6,22,22
Cc1cc(Nc2ccc(C(=O)Nc3ccc(Nc4cc[n+](C)cc4)cc3)c(N)c2)c2cc(N)ccc2[n+]1C.[I-].[I-],0.16,2.2,8.4,110
CCC[n+]1cccc(-c2ccc(NC(=O)/C=C/c3ccc(C(=O)Nc4ccc(-c5ccc(-c6ccc(-c7ccc[n+](CCC)c7)cc6)cc5)cc4)cc3)cc2)c1.Cc1ccc(S(=O)(=O)[O-])cc1.Cc1ccc(S(=O)(=O)[O-])cc1,0.02,2.2,6.4,20
CC[n+]1ccc(Nc2ccc(NC(=O)/C=C/c3ccc(C(=O)Nc4ccc(Nc5cc[n+](CC)cc5)c(N)c4)cc3)cc2N)cc1.[Br-].[Br-],0.35,2.3,1.4,7.5
C[n+]1ccc(Nc2ccc(NC(=O)c3ccc(Nc4cc[n+](C)c5cc(N)ccc45)cc3N)cc2)cc1.[Br-].[Br-],-0.12,2.45,1.2,20
CCCCC[n+]1cccc2cc(NC(=O)c3ccc(C(=O)Nc4ccc5c(ccc[n+]5CCCCC)c4)cc3)ccc21.Cc1ccc(S(=O)(=O)[O-])cc1.Cc1ccc(S(=O)(=O)[O-])cc1,0.92,1.62,55,57
CC[n+]1ccc(Nc2ccc(NC(=O)/C=C/c3ccc(/C=C/C(=O)Nc4ccc(Nc5cc[n+](CC)cc5)cc4)cc3)cc2)cc1.Cc1ccc(S(=O)(=O)[O-])cc1.Cc1ccc(S(=O)(=O)[O-])cc1,-0.05,1.88,9,32
C[n+]1ccc(Nc2ccc(NC(=O)c3ccc(Nc4cc[n+](C)c5ccccc45)cc3N)cc2)cc1.[I-].[I-],0.24,2.18,1.1,29
CCC[n+]1ccc(Nc2ccc(NC(=O)/C=C/c3ccc(/C=C/C(=O)Nc4ccc(Nc5cc[n+](CCC)cc5)cc4)cc3)cc2)cc1.[Br-].[Br-],0.46,1.85,13,25
C[n+]1cccc(NC(=O)c2ccc(NC(=O)c3ccc(C(=O)Nc4ccc(C(=O)Nc5ccc[n+](C)c5)cc4)cc3)cc2)c1.Cc1ccc(S(=O)(=O)[O-])cc1.Cc1ccc(S(=O)(=O)[O-])cc1,-0.74,2.13,5.9,56
